ChEMBL document CHEMBL3885861, “Open TG-GATES”

Organism: Rattus norvegicus
Assay: Open TG-GATES - Regimen: Single
Format: toxicity, organism-based, Sprague-Dawley
Design: regimen Single, gender Male, age 6 weeks
Conditions: in vivo, po, 300 mg/kg, route gavage, dose level Middle; for APTT / Bas / Eos / Fbg / Hb / Ht / Lym / MCH / MCHC / MCV / Mono / Neu / PT / Plat / RBC / Ret / WBC: tissue Blood; for KIDNEY_L / KIDNEY_R / KIDNEY_TOTAL: tissue Kidney; for LIVER: tissue Liver; for A/G / ALP / ALT / AST / BUN / CRE / Ca / Cl / DBIL / GLC / IP / K / LDH / Na / PL / RALB / TBIL / TC / TG / TP / gamma-GTP: tissue Plasma

O=C(O)COc1nn(Cc2ccccc2)c2ccccc12 [BENDAZAC]
TERMINAL_BW (3 h): 210.1 g
APTT (3 h): 17.4 s
Bas (3 h): 0%
Eos (3 h): 1%
Fbg (3 h): 206.8 mg/dL
Hb (3 h): 13.9 g/dL
Ht (3 h): 41.6%
Lym (3 h): 80.4%
MCH (3 h): 21.7 pg
MCHC (3 h): 33.5%
MCV (3 h): 64.7 fL
Mono (3 h): 5.2%
Neu (3 h): 13.4%
PT (3 h): 11.7 s
Plat (3 h): 116.9 x10_4/uL
RBC (3 h): 643.4 x10_4/ul
Ret (3 h): 9.9%
WBC (3 h): 91 x10_2/uL
KIDNEY_L (3 h): 1 g
KIDNEY_R (3 h): 1 g
KIDNEY_TOTAL (3 h): 2 g
LIVER (3 h): 9.4 g
A/G (3 h): 2.1
ALP (3 h): 1450 IU/L
ALT (3 h): 35.6 IU/L
AST (3 h): 69.2 IU/L
BUN (3 h): 11.8 mg/dL
CRE (3 h): 0.5 mg/dL
Ca (3 h): 10.6 mg/dL
Cl (3 h): 101 meq/L
DBIL (3 h): 0.014 mg/dL
GLC (3 h): 189.2 mg/dL
IP (3 h): 10.5 mg/dL
K (3 h): 4.9 meq/L
LDH (3 h): 105 IU/L
Na (3 h): 139.4 meq/L
PL (3 h): 124.4 mg/dL
RALB (3 h): 3.6 g/dL
TBIL (3 h): 1.3 mg/dL
TC (3 h): 71.6 mg/dL
TG (3 h): 46 mg/dL
TP (3 h): 5.4 g/dL
gamma-GTP (3 h): 1 IU/L
TERMINAL_BW (6 h): 207.7 g
APTT (6 h): 17.2 s
Bas (6 h): 0%
Eos (6 h): 1.4%
Fbg (6 h): 214.8 mg/dL
Hb (6 h): 13.9 g/dL
Ht (6 h): 41.7%
Lym (6 h): 78.2%
MCH (6 h): 21.7 pg
MCHC (6 h): 33.3%
MCV (6 h): 65.1 fL
Mono (6 h): 7.8%
Neu (6 h): 13%
PT (6 h): 11.9 s
Plat (6 h): 119.6 x10_4/uL
RBC (6 h): 641.8 x10_4/ul
Ret (6 h): 11.7%
WBC (6 h): 98.8 x10_2/uL
KIDNEY_L (6 h): 1 g
KIDNEY_R (6 h): 1 g
KIDNEY_TOTAL (6 h): 2 g
LIVER (6 h): 8.9 g
A/G (6 h): 2.3
ALP (6 h): 3422.2 IU/L
ALT (6 h): 30.2 IU/L
AST (6 h): 60.8 IU/L
BUN (6 h): 8.8 mg/dL
CRE (6 h): 0.6 mg/dL
Ca (6 h): 10.9 mg/dL
Cl (6 h): 101.8 meq/L
DBIL (6 h): 0.066 mg/dL
GLC (6 h): 189.6 mg/dL
IP (6 h): 10.7 mg/dL
K (6 h): 4.9 meq/L
LDH (6 h): 97 IU/L
Na (6 h): 141.2 meq/L
PL (6 h): 135.4 mg/dL
RALB (6 h): 3.8 g/dL
TBIL (6 h): 1.5 mg/dL
TC (6 h): 78.2 mg/dL
TG (6 h): 27 mg/dL
TP (6 h): 5.4 g/dL
gamma-GTP (6 h): 1 IU/L
TERMINAL_BW (9 h): 200.4 g
APTT (9 h): 17.2 s
Bas (9 h): 0%
Eos (9 h): 1%
Fbg (9 h): 205 mg/dL
Hb (9 h): 14 g/dL
Ht (9 h): 41.8%
Lym (9 h): 81.8%
MCH (9 h): 22.3 pg
MCHC (9 h): 33.4%
MCV (9 h): 66.8 fL
Mono (9 h): 5.2%
Neu (9 h): 12%
PT (9 h): 11.8 s
Plat (9 h): 121.4 x10_4/uL
RBC (9 h): 626.2 x10_4/ul
Ret (9 h): 8.8%
WBC (9 h): 86.7 x10_2/uL
KIDNEY_L (9 h): 0.9 g
KIDNEY_R (9 h): 1 g
KIDNEY_TOTAL (9 h): 1.9 g
LIVER (9 h): 7.8 g
A/G (9 h): 2.1
ALP (9 h): 2047.2 IU/L
ALT (9 h): 29 IU/L
AST (9 h): 60.2 IU/L
BUN (9 h): 9.6 mg/dL
CRE (9 h): 0.6 mg/dL
Ca (9 h): 10.3 mg/dL
Cl (9 h): 103.6 meq/L
DBIL (9 h): 0.028 mg/dL
GLC (9 h): 183.8 mg/dL
IP (9 h): 10 mg/dL
K (9 h): 4.7 meq/L
LDH (9 h): 94.4 IU/L
Na (9 h): 143 meq/L
PL (9 h): 126 mg/dL
RALB (9 h): 3.7 g/dL
TBIL (9 h): 1.2 mg/dL
TC (9 h): 72.4 mg/dL
TG (9 h): 39.4 mg/dL
TP (9 h): 5.5 g/dL
gamma-GTP (9 h): 1.2 IU/L
TERMINAL_BW (24 h): 220.3 g
APTT (24 h): 16.8 s
Bas (24 h): 0%
Eos (24 h): 1%
Fbg (24 h): 208.6 mg/dL
Hb (24 h): 13.6 g/dL
Ht (24 h): 40.7%
Lym (24 h): 78.6%
MCH (24 h): 21.3 pg
MCHC (24 h): 33.3%
MCV (24 h): 63.9 fL
Mono (24 h): 9.6%
Neu (24 h): 11%
PT (24 h): 12.2 s
Plat (24 h): 120.5 x10_4/uL
RBC (24 h): 637.8 x10_4/ul
Ret (24 h): 8%
WBC (24 h): 98.3 x10_2/uL
KIDNEY_L (24 h): 1 g
KIDNEY_R (24 h): 1 g
KIDNEY_TOTAL (24 h): 2 g
LIVER (24 h): 11.3 g
A/G (24 h): 2.2
ALP (24 h): 1529.6 IU/L
ALT (24 h): 39 IU/L
AST (24 h): 71.2 IU/L
BUN (24 h): 19.8 mg/dL
CRE (24 h): 0.6 mg/dL
Ca (24 h): 11 mg/dL
Cl (24 h): 104 meq/L
DBIL (24 h): 0.006 mg/dL
GLC (24 h): 187.2 mg/dL
IP (24 h): 6.3 mg/dL
K (24 h): 4.5 meq/L
LDH (24 h): 123.4 IU/L
Na (24 h): 140 meq/L
PL (24 h): 132 mg/dL
RALB (24 h): 3.8 g/dL
TBIL (24 h): 1 mg/dL
TC (24 h): 66.8 mg/dL
TG (24 h): 111 mg/dL
TP (24 h): 5.5 g/dL
gamma-GTP (24 h): 1 IU/L
